Reference: patent publication US8846951B2 (AbbVie Inc., priority 2009, dated 2014)
“Also recorded” adds a separate entry of the source.

Assays:
5HT2B receptors = target: T1, 5HT2B receptors (Homo sapiens, UniProt P41595); experiment: Human 5-HT2B functional high throughput screening assay in CHO-K1 cells (calcium flux); format: cell-based
T1 construct: expressed in transfected cells; host or cells: CHO-K1 cells
Method in brief: (§1)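 Frozen CHO-K1 cells overexpressing the receptor were plated, serum-starved overnight, then loaded with Ca4 dye plus 2.5 mM probenecid for 60 min at room temperature. FLIPR fluorescence (ex 480/em 530 nm, 25 °C) after compound addition was normalized to serotonin; EC50 and Emax came from 4-parameter logistic fits.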

[1] = tested on: MK-801-induced deficits in inhibitory avoidance; experiment: 24-hour inhibitory avoidance in mouse (MK-801-induced deficit); format: in vivo; conditions: CD1 mice; i.p.; high dose of 10 mg/kg; compared to Veh-MK-801 (0.1 mg/kg)
Source text: (viii) Inhibitory Avoidance in Mouse
Specifically in the hippocampus CA1 area, N-methyl-D-aspartic acid (NMDA) receptors are known to regulate synaptic plasticity, long term-potentiation (LTP), and learning and memory processes, including short- and long-term memories. […] The inhibitory avoidance task involves the uses of a two-compartment step through apparatus (Ugo Basile, Collegeville, Pa.) that measures the animal's ability to remember a brief noxious stimulus (foot shock), and is considered a measure of trial learning, and memory. (Bitner, R. S., et al. J. Neurosci. 2007, 27(39), 10578-10587). The purpose of this experiment was to test the ability of a 5HTc agonist to attenuate MK-801-induced deficits in the 24-hour inhibitory avoidance test. Effects against MK-801-induced cognitive impairment may indicate a potential efficacy in treating cognitive deficits of schizophrenia.
Following a 2 hour habituation period, CD1 mice first received i.p. treatment with the test compound at 0, 1, 3, 10 mg/kg. 20 minutes later mice then received either MK-801 at 0.1 mg/kg (dissolved in 0.3% tartaric acid) or vehicle (Veh, water). […] The latency to enter the adjoining dark chamber was recorded, and an inescapable foot shock (0.3 mA, 1 second duration) was presented to the mouse. […] The latency to enter the dark chamber was recorded and was the dependent variable measured for assessing memory retention.

5HT2C receptors = target: T2, 5HT2C receptors (Homo sapiens, UniProt P28335); experiment: Human 5-HT2C functional high throughput screening assay in CHO-K1 cells (calcium flux); format: cell-based; design: expressed in transfected cells; host or cells: CHO-K1 cells
T2 sequence (P28335 33-458): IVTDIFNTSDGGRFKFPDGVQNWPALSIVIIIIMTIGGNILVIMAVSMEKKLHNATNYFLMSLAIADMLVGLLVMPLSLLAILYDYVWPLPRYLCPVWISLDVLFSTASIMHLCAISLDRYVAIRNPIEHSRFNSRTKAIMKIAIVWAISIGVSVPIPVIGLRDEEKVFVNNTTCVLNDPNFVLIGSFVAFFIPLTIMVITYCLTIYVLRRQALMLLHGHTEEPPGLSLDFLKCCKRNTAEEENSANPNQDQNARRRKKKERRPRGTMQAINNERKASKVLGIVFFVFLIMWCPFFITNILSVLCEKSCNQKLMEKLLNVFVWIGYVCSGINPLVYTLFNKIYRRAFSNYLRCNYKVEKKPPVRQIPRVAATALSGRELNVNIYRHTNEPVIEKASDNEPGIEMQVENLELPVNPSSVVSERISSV
Method in brief: as §1

[2] = tested on: PCP-induced hyperlocomotion; experiment: Psychostimulant (PCP)-induced hyperlocomotion in rat; format: in vivo; conditions: male CD rats; i.p. 1, 3, 10 mg/kg 30 min before PCP 2 mg/kg sc; significant at 1 mg/kg and 10 mg/kg
Description: (vii) Assessment of Effects on Psychostimulant-Induced Hyperlocomotion in Rat
In humans, phencyclidine (PCP) is known to produce a syndrome of behavioral effects which have many characteristics in common with schizophrenia. Therefore, antagonism of PCP effects might be evidence for antipsychotic efficacy of a compound.
Male CD rats with a body weight of 316-394 g from Charles River (Portage, Mich.) were used in this study. The rats were habituated to the test room for 60 minutes. The rats were then placed into the locomotor activity chambers (AccuScan Instruments) for 30 minutes and then were dosed i.p. with Example 115 at 0, 1, 3 and 10 mg/kg. The rats were dosed sc 30 minutes later with PCP at 0 or 2 mg/kg. The activity was measured for 150 minutes in total and 90 minutes post PCP.

T1 sequence (P41595 whole entry): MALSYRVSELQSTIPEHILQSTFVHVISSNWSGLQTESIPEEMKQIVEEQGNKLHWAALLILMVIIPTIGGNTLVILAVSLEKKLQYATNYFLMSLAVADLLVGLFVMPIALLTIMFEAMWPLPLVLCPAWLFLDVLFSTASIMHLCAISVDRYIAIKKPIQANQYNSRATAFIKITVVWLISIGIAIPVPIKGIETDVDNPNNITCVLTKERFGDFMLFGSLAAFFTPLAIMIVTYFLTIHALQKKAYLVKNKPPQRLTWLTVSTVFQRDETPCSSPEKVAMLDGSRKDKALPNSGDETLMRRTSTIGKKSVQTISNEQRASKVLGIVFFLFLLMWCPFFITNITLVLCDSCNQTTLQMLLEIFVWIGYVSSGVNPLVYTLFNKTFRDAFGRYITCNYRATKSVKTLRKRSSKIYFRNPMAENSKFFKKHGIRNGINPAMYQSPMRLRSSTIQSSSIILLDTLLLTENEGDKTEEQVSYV

SMILES: CN1C[C@@H]2CNC(=O)c3cc(-c4ccc(F)cc4)ccc3[C@H]2C1 [Example 115, (3aS,10bS)-8-(4-Fluorophenyl)-2-methyl-1,2,3,3a,4,5-hexahydrobenzo[e]pyrrolo[3,4-c]azepin-6(10bH)-one]
- EC50 (5HT2B receptors; 5-HT2B agonist activity, CHO-K1 cells, calcium flux, read-out: EC50): > 10000 nM
- Emax (5HT2B receptors; 5-HT2B, maximum functional response as percentage relative to the effect of serotonin): inactive
- transfer latency, 24-hour inhibitory avoidance [1]: significantly increased transfer latencies; also recorded: dose-dependent improvement in mouse 24-hour inhibitory avoidance scores
- EC50 (5HT2C receptors; 5-HT2C agonist activity, CHO-K1 cells, calcium flux, read-out: EC50): 2 nM
- Emax (5HT2C receptors; CHO-K1, 5-HT2C, maximum functional response as percentage relative to the effect of serotonin, read-out: Emax): > 120%
- PCP-induced hyperlocomotion (distance traveled) [2]: significantly attenuate the PCP-induced hyperlocomotion; also recorded: attenuating the affect of phencyclidine (PCP)
